Laboratory results taken from patent publication US9880171B2, “iASPP phosphorylation and metastatic potential” (LUDWIG INSTITUTE FOR CANCER RESEARCH LTD., priority 2012, dated 2018).

Key:
Assay type in all cases: cell-based, human
[1] = test system: slow-migrating iASPP in H1299 cells; test: induction of slow-migrating iASPP by chemotherapeutic agents in H1299 cells (WB); settings: H1299, overnight treatment (oxidative stress inducers 1-3 h; EDTA 4 mM 1 hour), antibody LX49.3
Protocol: FIG. 3. […] H1299 cells were treated overnight with the indicated concentrations of mitosis-arrest drugs nocodazole, colchicine and taxol, DNA damaging drugs, or oxidative stress inducers (1-3 h). Total lysate was prepared in UREA buffer, and iASPP expression patterns were determined using antibody LX49.3. […] Mitotic-arrest drugs were applied to H1299 cells to induce iASPP mobility shift. Floating and adherent cells were collected, and iASPP expression pattern was determined by western blotting (WB). C. […] Left panel, cells in mitosis (floating) and interphase (adherent) were collected by mitotic shake-off, and iASPP expression pattern was determined by WB. Right panel, H1299 cells after Taxol treatment, or mitotic shake-off were immunofluorescence stained using antibody LX49.3. In mitotic shake-off experiment, mitotic shake-off cells were cytospun to slides; the remaining adherent cells after shaking were scraped off and used as interphase control. […] Melanoma cells were treated with nocodazole overnight and iASPP expression patterns from total cell lysate was determined by WB.
FIG. 4. A. Floating and adherent H1299 cells separately collected by mitotic shake-off (FIG. 3C) were stained with propidium iodide (PI), followed by FACS analysis. […] B. H1299 cells were subjected to treatment of 10 μM nocodazole for 24 hours (Nocodazole), on ice for 30 minutes (Cold shock), or 4 mM EDTA for 1 hour (EDTA). Left panel: iASPP expression pattern was analysed by immunoblotting. Right panel: phase contrast images were taken before collection of the cells for WB analysis. Bar=20 μm.
(§1) For WB, cells were lysed in buffer containing 8 M urea, 1 M thiourea, 0.5% CHAPS, 50 mM DTT, and 24 mM spermine. A total of 40 μg of protein extract was loaded per lane into SDS-polyacrylamide gels. Gels were transferred onto nitrocellulose membrane (Protran) and the resulting blots incubated first with primary antibody overnight at 4° C. and then with the appropriate secondary horseradish peroxidize-conjugated antibody (Dako). The results were visualized by enhanced chemiluminescent detection (Amersham Biosciences) using X-ray film (Fujifilm). For cell lysate immunoprecipitation, cells were dissolved in NP40 buffer (50 mM Tris-HCl pH 8.0, 150 mM NaCl, 1% NP-40) with protease inhibitor cocktail mix (Roche Diagnostics). Cells were further thoroughly broken by ultrasonication, followed by spinning for 1 hour. Achieved suspension was adjusted to 1-2 mg/ml using NP40 buffer and incubated with 20 μl nickel beads, glutathione beads, or protein A beads (with 2 μg required antibody) for 2 h at room temperature. The beads were washed for four times with NP40 buffer, boiled for 5 min in Laemmli sample buffer, and applied for Western blotting. For pure protein immunoprecipitation, 5-10 μg purified proteins were mixed in NP40 buffer with 1 mg/ml BSA for 2 h at room temperature.
As mitotic cells often detach from the tissue culture dish, floating cells were separated from adherent cells after the treatment of Nocodozole, Taxol and Colchicine.

[2] = test system: slow-migrating iASPP in melanoma cell lines; test: induction of slow-migrating iASPP in melanoma cell lines (WB); settings: panel of melanoma cell lines, nocodazole overnight
Protocol: FIG. 3. Mitotic arrests induces slow-migrating nuclear iASPP. A. Mitosis-arresting (i.e., apoptosis-inducing) chemotherapeutic drugs induce slow-migrating iASPP. H1299 cells were treated overnight with the indicated concentrations of mitosis-arrest drugs nocodazole, colchicine and taxol, DNA damaging drugs, or oxidative stress inducers (1-3 h). Total lysate was prepared in UREA buffer, and iASPP expression patterns were determined using antibody LX49.3. B. Slow-migrating iASPP exclusively exists in mitotic cells after drug induction. Mitotic-arrest drugs were applied to H1299 cells to induce iASPP mobility shift. Floating and adherent cells were collected, and iASPP expression pattern was determined by western blotting (WB). C. Slow-migrating iASPP exists in natural mitotic cells and localized in nucleus (as determining by staining with the nuclear specific marker Topro). Left panel, cells in mitosis (floating) and interphase (adherent) were collected by mitotic shake-off, and iASPP expression pattern was determined by WB. Right panel, H1299 cells after Taxol treatment, or mitotic shake-off were immunofluorescence stained using antibody LX49.3. […] Melanoma cells were treated with nocodazole overnight and iASPP expression patterns from total cell lysate was determined by WB. […]

[3] = test system: iASPP modification and p53-iASPP binding in WM278 cells; test: iASPP modification and p53 co-immunoprecipitation in WM278 cells; settings: 0.4 μM JNJ or 10 μM nocodazole overnight
Protocol: as §1

`COC(=O)Nc1nc2ccc(C(=O)c3cccs3)cc2[nH]1` [Nocodazole] was tested, and the “induction of slow-migrating iASPP isoform” value [1] was “induced”, the “induction of slow-migrating iASPP isoform” value [2] was “induced the conversion of faster migrating iASPP into the slower migrating iASPP isoform” and the “amount of modified iASPP” value [3] was “induced iASPP modification”.
